# Experimental data reported in article PMC8151276, “An Integrated Approach toward NanoBRET Tracers for Analysis of GPCR Ligand Engagement” (Molecules, 2021).
# Tests used:
# Assay type in all cases: binding
# CYSLTR2 = molecular target: T1, CYSLTR2 (Homo sapiens, UniProt Q9NS75); assay: NanoBRET screen HiBiT-CYSLTR2 in HEK293
# T1 construct: purchased Promega (in-house HiBiT-GPCR construct library, NanoBRET)
# T1 sequence (Q9NS75 1-346): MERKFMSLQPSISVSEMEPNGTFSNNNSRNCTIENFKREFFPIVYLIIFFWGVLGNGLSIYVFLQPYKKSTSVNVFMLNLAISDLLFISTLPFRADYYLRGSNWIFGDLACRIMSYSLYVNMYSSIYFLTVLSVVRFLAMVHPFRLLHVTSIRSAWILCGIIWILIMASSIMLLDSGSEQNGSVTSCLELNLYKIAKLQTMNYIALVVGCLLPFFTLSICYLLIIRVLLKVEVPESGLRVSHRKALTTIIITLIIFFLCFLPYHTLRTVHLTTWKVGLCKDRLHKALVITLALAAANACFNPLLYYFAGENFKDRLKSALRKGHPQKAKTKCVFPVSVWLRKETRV
# Procedure: (§1) Each tracer candidate was screened across the entire library of HiBiT-GPCR constructs using NanoBRET as the detection modality. As depicted in Figure 4A, the specificity of interactions was evaluated through decrease in BRET due to competitive displacement of a bound tracer by excess parental compound. Each tracer was analyzed for binding to each HiBiT-GPCR fusion in the absence and in the presence of competing parental compound. Briefly, HEK293 cells were transfected with HiBiT-GPCR constructs diluted into promoterless DNA to reduce expression and maximize translocation to the cell surface. Each tracer candidate was then screened at concentrations of 1 μM and 0.1 μM across cells expressing these fusions. Cells were treated for 1.5 h with tracer either alone or in the presence of 20 μM competing parental compound (i.e., control). BRET was measured upon addition of purified LgBiT and subsequent complementation with HiBiT genetically fused to a GPCR. The specificity of interactions was assessed through a decrease in BRET signal due to competitive displacement of the bound tracer. To further gauge the robustness of these interactions, the fold response over the control (i.e., BRETtracer/BRETcontrol) was calculated. We chose a 1.5-fold response, which translates to ≥7-fold signal over noise as the minimal threshold required to score an interaction as positive. […]. Below we highlight the screening results obtained for our exemplary fluorescent tracers based on Clozapine, Amitriptyline and AZD1283.
# (§2) HiBiT-GPCR DNA constructs were diluted in 10 mM Tris pH 8 to a final concentration of 0.01 μg/μL, arrayed in 96-well plates and stored at −20 °C. For transfection, HEK293 cells were suspended in Opti-MEM (without phenol red) supplemented with 2% fetal bovine serum (Seradigm) and 100 units/mL penicillin–streptomycin (Gibco) at a final concentration of 220,000 cells/mL and dispensed into white 96-well plates at 90 μL/well. Subsequent transfections and screens were carried using an Agilent Bravo Automated Liquid Handling Platform. First, the 96-well HiBiT DNA arrays were diluted 25-fold in Opti-MEM (without serum or phenol red) to a final concentration of 0.0004 μg/μL and 20 μL of the diluted DNAs were transferred into new 96-well plates. Next, promoterless carrier DNA (1 μg/μL) was diluted 25-fold (0.04 μg/μL) and then dispensed into the diluted arrays at 20 μL/well. Following brief mixing, Viafect transfection reagent (Promega) diluted 16-fold into Opti-MEM was dispensed into the plates at 40 μL/well. After mixing by pipetting, plates were incubated for 10 min on the pipetting station deck. The DNA-transfection reagent complexes were then added to plates containing cells. To facilitate the screen, 10 μL of DNA-transfection reagent complexes were added in duplicates to the top 4 and bottom 4 rows, resulting in two identical 48-well arrays per plate. Plates with transfected cells were incubated for 18–20 h at 37 °C/5% CO2. A screen of each tracer across the entire library using two different concentrations requires duplicate plates of transfected cells. Depending on the number of tracers being screened, transfections can be scaled up using the same ratios. The next day, for each tracer, four 20× screening solutions in tracer dilution buffer (Promega) were prepared: two duplicates at final concentration of 20 μM and two duplicates at a final concentration of 2 μM. A competing unmodified compound was added to one of each duplicate at a final concentration of 400 μM. The four resulting solutions were diluted 4-fold in Opti-MEM without serum or phenol red to generate 5× solutions (5 µM and 0.5 µM tracer +/− 100 μM competing compound). To screen the library, a BioTek MultiFlo FX liquid dispenser was used to dispense 22.5 µL of tracer solution to the top 4 rows and 22.5 µL tracer + competing compound solution to the 4 bottom rows. Plates were briefly mixed on an orbital shaker and incubated for 1.5 h at room temperature. […]
# AVPR2 = molecular target: T2, AVPR2 (Homo sapiens, UniProt P30518); assay: NanoBRET screen HiBiT-AVPR2 in HEK293
# T2 construct: purchased Promega (in-house HiBiT-GPCR construct library, NanoBRET)
# Procedure: as §1, §2
# P2RY1 = molecular target: T3, P2RY1 (Homo sapiens, UniProt P47900); assay: NanoBRET screen HiBiT-P2RY1 in HEK293
# T3 construct: purchased Promega (in-house HiBiT-GPCR construct library, NanoBRET)
# Procedure: as §1, §2
# GRM5 = molecular target: T4, GRM5 (Homo sapiens, UniProt P41594); assay: NanoBRET screen HiBiT-GRM5 in HEK293
# T4 construct: purchased Promega (in-house HiBiT-GPCR construct library, NanoBRET)
# Procedure: as §1, §2
# RXFP4 = molecular target: T5, RXFP4 (Homo sapiens, UniProt Q8TDU9); assay: NanoBRET screen HiBiT-RXFP4 in HEK293
# T5 construct: purchased Promega (in-house HiBiT-GPCR construct library, NanoBRET)
# Procedure: as §1, §2
# P2RY2 = molecular target: T6, P2RY2 (Homo sapiens, UniProt P41231); assay: NanoBRET screen HiBiT-P2RY2 in HEK293
# T6 construct: purchased Promega (in-house HiBiT-GPCR construct library, NanoBRET)
# Procedure: as §1, §2
# PDGFRB = molecular target: T7, PDGFRB (Homo sapiens, UniProt P09619); assay: NanoBRET screen HiBiT-PDGFRB in HEK293
# T7 construct: purchased Promega (in-house HiBiT-GPCR construct library, NanoBRET)
# Procedure: as §1, §2
# P2RY10 = molecular target: T8, P2RY10 (Homo sapiens, UniProt O00398); assay: NanoBRET screen HiBiT-P2RY10 in HEK293
# T8 construct: purchased Promega (in-house HiBiT-GPCR construct library, NanoBRET)
# Procedure: as §1, §2
# F2RL3 = molecular target: T9, F2RL3 (Homo sapiens, UniProt Q96RI0); assay: NanoBRET screen HiBiT-F2RL3 in HEK293
# T9 construct: purchased Promega (in-house HiBiT-GPCR construct library, NanoBRET)
# T9 sequence (Q96RI0 18-385): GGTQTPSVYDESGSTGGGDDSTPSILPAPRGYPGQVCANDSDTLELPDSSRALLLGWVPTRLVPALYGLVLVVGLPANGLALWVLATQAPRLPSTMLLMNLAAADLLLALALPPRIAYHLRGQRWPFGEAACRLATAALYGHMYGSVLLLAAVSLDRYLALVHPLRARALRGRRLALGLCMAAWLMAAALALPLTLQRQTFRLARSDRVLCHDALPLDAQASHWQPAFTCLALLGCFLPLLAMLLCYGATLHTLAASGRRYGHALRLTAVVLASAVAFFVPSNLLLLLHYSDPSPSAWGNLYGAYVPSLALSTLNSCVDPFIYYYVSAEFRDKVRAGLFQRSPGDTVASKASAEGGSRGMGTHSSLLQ
# Procedure: as §1, §2
# T2 sequence (P30518 whole entry): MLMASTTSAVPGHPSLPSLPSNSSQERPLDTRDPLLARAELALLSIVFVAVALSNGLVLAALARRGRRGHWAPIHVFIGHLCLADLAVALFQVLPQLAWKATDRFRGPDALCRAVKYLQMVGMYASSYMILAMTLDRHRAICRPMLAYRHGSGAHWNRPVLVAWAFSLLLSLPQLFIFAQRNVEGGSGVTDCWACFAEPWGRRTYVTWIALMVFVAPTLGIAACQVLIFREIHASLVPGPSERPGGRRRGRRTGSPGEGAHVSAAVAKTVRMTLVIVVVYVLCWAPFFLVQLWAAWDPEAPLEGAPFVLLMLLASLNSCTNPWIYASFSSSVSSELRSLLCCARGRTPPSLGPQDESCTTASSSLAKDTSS
# T6 sequence (P41231 whole entry): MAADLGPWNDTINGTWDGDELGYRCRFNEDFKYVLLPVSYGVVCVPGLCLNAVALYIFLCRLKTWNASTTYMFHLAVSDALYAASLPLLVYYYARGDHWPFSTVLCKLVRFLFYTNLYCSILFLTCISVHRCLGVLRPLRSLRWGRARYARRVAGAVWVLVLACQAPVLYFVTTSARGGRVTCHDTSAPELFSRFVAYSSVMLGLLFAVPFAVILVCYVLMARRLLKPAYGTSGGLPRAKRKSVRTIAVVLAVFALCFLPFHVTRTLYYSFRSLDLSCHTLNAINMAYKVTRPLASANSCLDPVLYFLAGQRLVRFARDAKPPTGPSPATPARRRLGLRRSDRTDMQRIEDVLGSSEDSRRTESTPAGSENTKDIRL
# T5 sequence (Q8TDU9 whole entry): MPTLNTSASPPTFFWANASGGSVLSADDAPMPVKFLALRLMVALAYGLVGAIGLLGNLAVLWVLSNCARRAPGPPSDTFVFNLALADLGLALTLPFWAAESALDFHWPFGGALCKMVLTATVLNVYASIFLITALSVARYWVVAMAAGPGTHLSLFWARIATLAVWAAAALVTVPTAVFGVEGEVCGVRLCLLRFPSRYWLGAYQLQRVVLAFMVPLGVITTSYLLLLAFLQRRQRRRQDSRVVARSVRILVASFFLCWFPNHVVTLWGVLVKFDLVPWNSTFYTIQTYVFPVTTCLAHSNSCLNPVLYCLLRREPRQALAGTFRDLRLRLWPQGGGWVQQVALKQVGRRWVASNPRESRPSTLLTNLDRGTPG
# T3 sequence (P47900 whole entry): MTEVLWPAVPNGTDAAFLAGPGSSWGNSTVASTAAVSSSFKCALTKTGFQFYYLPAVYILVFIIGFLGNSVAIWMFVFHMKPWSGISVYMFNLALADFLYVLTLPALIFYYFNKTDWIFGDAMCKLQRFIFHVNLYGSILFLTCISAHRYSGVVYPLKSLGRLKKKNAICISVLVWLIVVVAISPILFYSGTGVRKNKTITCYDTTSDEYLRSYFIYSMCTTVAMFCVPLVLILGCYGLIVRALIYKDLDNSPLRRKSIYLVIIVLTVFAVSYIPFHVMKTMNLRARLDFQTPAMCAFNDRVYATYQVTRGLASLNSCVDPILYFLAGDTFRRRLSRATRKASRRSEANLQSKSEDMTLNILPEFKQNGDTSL
# T7 sequence (P09619 33-1106): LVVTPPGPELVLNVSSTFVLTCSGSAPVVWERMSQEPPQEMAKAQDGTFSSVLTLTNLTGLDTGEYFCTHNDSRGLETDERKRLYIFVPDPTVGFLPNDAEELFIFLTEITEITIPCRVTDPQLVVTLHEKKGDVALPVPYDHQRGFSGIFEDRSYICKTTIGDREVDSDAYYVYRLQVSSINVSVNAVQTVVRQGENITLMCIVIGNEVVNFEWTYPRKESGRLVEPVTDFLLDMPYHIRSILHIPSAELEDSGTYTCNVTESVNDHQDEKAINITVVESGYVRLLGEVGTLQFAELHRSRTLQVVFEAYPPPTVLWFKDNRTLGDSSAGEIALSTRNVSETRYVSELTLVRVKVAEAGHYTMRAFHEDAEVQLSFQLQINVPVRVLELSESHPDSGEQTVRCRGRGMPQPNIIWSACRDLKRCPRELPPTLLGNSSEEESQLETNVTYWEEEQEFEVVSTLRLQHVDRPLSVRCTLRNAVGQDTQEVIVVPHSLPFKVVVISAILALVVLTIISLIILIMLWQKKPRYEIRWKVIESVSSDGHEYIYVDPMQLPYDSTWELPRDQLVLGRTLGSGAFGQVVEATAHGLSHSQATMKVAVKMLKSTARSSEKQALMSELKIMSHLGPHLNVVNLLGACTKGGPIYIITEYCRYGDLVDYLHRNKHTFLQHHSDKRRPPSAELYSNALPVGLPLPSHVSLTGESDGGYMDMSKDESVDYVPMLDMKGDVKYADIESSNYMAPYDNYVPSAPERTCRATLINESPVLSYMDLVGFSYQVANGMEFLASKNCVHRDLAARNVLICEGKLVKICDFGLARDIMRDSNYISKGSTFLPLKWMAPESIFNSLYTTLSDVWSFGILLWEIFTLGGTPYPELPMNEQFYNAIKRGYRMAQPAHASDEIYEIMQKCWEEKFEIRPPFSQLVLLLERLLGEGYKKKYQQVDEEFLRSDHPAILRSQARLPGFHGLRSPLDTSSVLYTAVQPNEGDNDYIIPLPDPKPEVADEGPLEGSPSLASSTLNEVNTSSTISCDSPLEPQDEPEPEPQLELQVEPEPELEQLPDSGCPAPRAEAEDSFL
# T8 sequence (O00398 whole entry, one chain of several): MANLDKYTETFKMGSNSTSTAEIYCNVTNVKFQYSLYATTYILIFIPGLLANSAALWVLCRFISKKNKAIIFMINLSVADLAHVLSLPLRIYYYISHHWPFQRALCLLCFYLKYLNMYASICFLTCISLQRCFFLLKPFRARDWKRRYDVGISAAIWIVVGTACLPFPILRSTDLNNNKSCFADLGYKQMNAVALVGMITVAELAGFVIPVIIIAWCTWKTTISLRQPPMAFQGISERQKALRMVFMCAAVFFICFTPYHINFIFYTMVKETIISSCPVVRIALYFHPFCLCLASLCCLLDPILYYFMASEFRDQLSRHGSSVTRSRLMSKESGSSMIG
# T4 sequence (P41594 21-1212): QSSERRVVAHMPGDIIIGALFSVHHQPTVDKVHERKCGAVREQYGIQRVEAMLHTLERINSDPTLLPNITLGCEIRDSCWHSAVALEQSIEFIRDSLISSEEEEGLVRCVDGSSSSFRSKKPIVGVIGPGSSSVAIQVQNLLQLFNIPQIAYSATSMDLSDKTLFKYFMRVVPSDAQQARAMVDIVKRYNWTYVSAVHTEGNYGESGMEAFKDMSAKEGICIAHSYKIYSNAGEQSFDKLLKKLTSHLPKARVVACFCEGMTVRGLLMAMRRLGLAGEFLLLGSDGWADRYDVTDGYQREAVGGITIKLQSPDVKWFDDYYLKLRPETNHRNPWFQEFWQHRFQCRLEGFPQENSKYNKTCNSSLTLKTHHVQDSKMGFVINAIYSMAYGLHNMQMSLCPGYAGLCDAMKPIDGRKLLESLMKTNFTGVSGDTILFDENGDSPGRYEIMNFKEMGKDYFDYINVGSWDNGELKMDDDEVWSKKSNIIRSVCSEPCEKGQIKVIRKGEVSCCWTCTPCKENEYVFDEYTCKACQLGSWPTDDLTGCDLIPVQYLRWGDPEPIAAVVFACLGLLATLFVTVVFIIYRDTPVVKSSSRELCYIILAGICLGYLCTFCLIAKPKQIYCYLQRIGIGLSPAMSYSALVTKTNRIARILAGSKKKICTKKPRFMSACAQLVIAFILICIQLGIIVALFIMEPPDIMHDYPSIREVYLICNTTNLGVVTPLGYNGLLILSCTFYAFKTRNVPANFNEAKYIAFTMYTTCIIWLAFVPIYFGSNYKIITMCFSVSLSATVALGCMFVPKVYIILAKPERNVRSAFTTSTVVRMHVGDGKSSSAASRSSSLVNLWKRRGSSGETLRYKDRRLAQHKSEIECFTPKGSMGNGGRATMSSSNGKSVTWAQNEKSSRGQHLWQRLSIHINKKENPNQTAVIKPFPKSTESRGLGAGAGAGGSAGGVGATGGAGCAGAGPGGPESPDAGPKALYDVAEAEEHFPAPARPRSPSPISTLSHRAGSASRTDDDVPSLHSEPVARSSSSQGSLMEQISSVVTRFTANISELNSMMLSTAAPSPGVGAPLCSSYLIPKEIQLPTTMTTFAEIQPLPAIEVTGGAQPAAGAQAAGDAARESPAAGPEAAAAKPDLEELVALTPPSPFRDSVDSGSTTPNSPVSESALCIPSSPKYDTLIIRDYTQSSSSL
SMILES,"NanoBRET Fold Response (CYSLTR2; CYSLTR2, tracer 0.1μM)","NanoBRET Fold Response (CYSLTR2; CYSLTR2, tracer 1μM)","NanoBRET Fold Response (AVPR2; AVPR2, tracer 0.1μM)","NanoBRET Fold Response (AVPR2; AVPR2, tracer 1μM)","NanoBRET Fold Response (P2RY1; P2RY1, tracer 0.1μM)","NanoBRET Fold Response (P2RY1; P2RY1, tracer 1μM)","NanoBRET Fold Response (GRM5; GRM5, tracer 0.1μM)","NanoBRET Fold Response (GRM5; GRM5, tracer 1μM)","NanoBRET Fold Response (RXFP4; RXFP4, tracer 0.1μM)","NanoBRET Fold Response (RXFP4; RXFP4, tracer 1μM)","NanoBRET Fold Response (P2RY2; P2RY2, tracer 0.1μM)","NanoBRET Fold Response (P2RY2; P2RY2, tracer 1μM)","NanoBRET Fold Response (PDGFRB; PDGFRB, tracer 0.1μM)","NanoBRET Fold Response (PDGFRB; PDGFRB, tracer 1μM)","NanoBRET Fold Response (P2RY10; P2RY10, tracer 0.1μM)","NanoBRET Fold Response (P2RY10; P2RY10, tracer 1μM)","NanoBRET Fold Response (F2RL3; F2RL3, tracer 0.1μM)","NanoBRET Fold Response (F2RL3; F2RL3, tracer 1μM)",further results
CC(C)N(CC[C@H](c1ccccc1)c1cc(CCNC(=O)CCOCCOCCOCCOCCNC(=O)CCc2ccc3n2[B-](F)(F)[N+]2=C(c4ccc[nH]4)C=CC2=C3)ccc1O)C(C)C [Tolterodine-2-NB590],0.93,1.00,1.06,1.06,0.97,1.00,0.99,0.87,0.96,1.06,1.06,1.07,1.22,0.94,0.91,0.89,1.08,0.97,–
CC(C)N(CC[C@H](c1ccccc1)c1cc(CCNC(=O)c2ccc(CNC(=O)CCc3ccc4n3[B-](F)(F)[N+]3=C(c5ccc[nH]5)C=CC3=C4)cc2)ccc1O)C(C)C [Tolterodine-BZ-NB590],1.00,1.08,0.97,1.05,1.43,1.03,1.00,1.05,1.08,0.98,1.02,1.04,1.14,1.21,1.34,0.76,1.03,1.06,–
O=C(CCOCCOCCOCCOCCNC(=O)CCc1ccc2n1[B-](F)(F)[N+]1=C(c3ccc[nH]3)C=CC1=C2)NCCCN1CCN(C2=Nc3ccccc3Oc3ccc(Cl)cc32)CC1 [Loxapine-a-2-NB590],0.91,1.02,1.04,1.05,1.01,0.97,1.00,1.04,1.01,1.21,0.99,1.05,1.12,1.00,1.14,0.98,1.00,1.02,–
CN1CCN(C2=Nc3cc(Cl)ccc3N(CC(=O)NCCOCCOCCOCCOCCNC(=O)CCc3ccc4n3[B-](F)(F)[N+]3=C(c5ccc[nH]5)C=CC3=C4)c3ccccc32)CC1 [Clozapine-c-2-NB590],–,–,–,–,–,–,–,–,–,–,–,–,–,–,–,–,–,–,"NanoBRET Fold Response (CYSLTR2; CYSLTR2, 0.1μM tracer): 1.04; NanoBRET Fold Response (CYSLTR2; CYSLTR2, 1μM tracer): 1.07; NanoBRET Fold Response (AVPR2; AVPR2, 0.1μM tracer): 0.99; NanoBRET Fold Response (AVPR2; AVPR2, 1μM tracer): 1.00; NanoBRET Fold Response (P2RY1; P2RY1, 0.1μM tracer): 0.97; NanoBRET Fold Response (P2RY1; P2RY1, 1μM tracer): 1.03; NanoBRET Fold Response (GRM5; GRM5, 0.1μM tracer): 0.99; NanoBRET Fold Response (GRM5; GRM5, 1μM tracer): 1.12; NanoBRET Fold Response (RXFP4; RXFP4, 0.1μM tracer): 0.96; NanoBRET Fold Response (RXFP4; RXFP4, 1μM tracer): 1.04; NanoBRET Fold Response (P2RY2; P2RY2, 0.1μM tracer): 0.99; NanoBRET Fold Response (P2RY2; P2RY2, 1μM tracer): 0.84; NanoBRET Fold Response (PDGFRB; PDGFRB, 0.1μM tracer): 1.00; NanoBRET Fold Response (PDGFRB; PDGFRB, 1μM tracer): 0.87; NanoBRET Fold Response (P2RY10; P2RY10, 0.1μM tracer): 1.06; NanoBRET Fold Response (P2RY10; P2RY10, 1μM tracer): 0.98; NanoBRET Fold Response (F2RL3; F2RL3, 0.1μM tracer): 1.02; NanoBRET Fold Response (F2RL3; F2RL3, 1μM tracer): 0.99"
Cc1nc2n(c(=O)c1CCN1CCC(c3noc4cc(F)ccc34)CC1)CCCC2OC(=O)NCCOCCOCCOCCOCCNC(=O)CCc1ccc2n1[B-](F)(F)[N+]1=C(c3ccc[nH]3)C=CC1=C2 (stereo not drawn) [Risperidone-2-NB590],0.97,1.15,1.04,1.01,0.98,0.97,0.98,1.02,0.96,1.10,1.08,0.86,1.09,0.90,1.14,1.14,0.98,0.97,–
COc1ccc2[nH]c(-c3ccc(CNC(=O)CCOCCOCCOCCOCCNC(=O)CCc4ccc5n4[B-](F)(F)[N+]4=C(c6ccc[nH]6)C=CC4=C5)cc3)c(CCNC(C)=O)c2n1 [AzomelatoninICO9-2-NB590],–,–,–,–,–,–,–,–,–,–,–,–,–,–,–,–,–,–,NanoBRET Fold Response (CYSLTR2; 0.1μM tracer): 1.03; NanoBRET Fold Response (CYSLTR2; 1μM tracer): 1.06; NanoBRET Fold Response (AVPR2; 0.1μM tracer): 0.84; NanoBRET Fold Response (AVPR2; 1μM tracer): 0.87; NanoBRET Fold Response (P2RY1; 0.1μM tracer): 0.99; NanoBRET Fold Response (P2RY1; 1μM tracer): 0.99; NanoBRET Fold Response (GRM5; 0.1μM tracer): 0.97; NanoBRET Fold Response (GRM5; 1μM tracer): 1.03; NanoBRET Fold Response (RXFP4; 0.1μM tracer): 0.94; NanoBRET Fold Response (RXFP4; 1μM tracer): 0.96; NanoBRET Fold Response (P2RY2; 0.1μM tracer): 1.06; NanoBRET Fold Response (P2RY2; 1μM tracer): 1.09; NanoBRET Fold Response (PDGFRB; 0.1μM tracer): 0.80; NanoBRET Fold Response (PDGFRB; 1μM tracer): 1.04; NanoBRET Fold Response (P2RY10; 0.1μM tracer): 0.88; NanoBRET Fold Response (P2RY10; 1μM tracer): 1.15; NanoBRET Fold Response (F2RL3; 0.1μM tracer): 1.05; NanoBRET Fold Response (F2RL3; 1μM tracer): 1.04
